# Laboratory results as given in patent US20230390298A1, “METHOD AND COMPOSITIONS FOR USE IN PROVIDING MALE CONTRACEPTION” (Eppin Pharma, Inc., priority 2022, published 2023).
# Experiments:
# recombinant human EPPIN = target: T1, recombinant human EPPIN (Homo sapiens, UniProt O95925); test: Epitope ALPHA (AlphaScreen) assay, EPPIN / anti-EPPIN antibody binding; conditions: EPPIN on donor beads, anti-EPPIN antibody on acceptor beads
# T1 construct: made in house; host or cells: E. coli strain OrigamiB-DE3-pLysS
# T1 sequence (O95925 22-133): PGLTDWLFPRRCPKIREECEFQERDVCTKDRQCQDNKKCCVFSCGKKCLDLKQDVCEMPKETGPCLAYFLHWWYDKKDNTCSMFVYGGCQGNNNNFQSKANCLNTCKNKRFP
# Text: Two assays for high throughput screening (HTS) of compounds have been established and validated. In one embodiment, these assays are based on an adaptation of the AlphaScreen™ assay developed by PerkinElmer (Waltham, MA). In the AlphaScreen™ (amplified luminescent proximity homogeneous assay) assay donor and acceptor beads (˜200 nm) are employed to hold interacting protein molecules. When the interacting protein molecules bind (for example EPPIN {on the donor bead} and anti-EPPIN {on the acceptor bead}), single state oxygen molecules diffuse from the donor bead to the acceptor bead (˜4 μsec) and fluorophores subsequently emit light at 520-620 nm. In the primary compound screen, histidine-tagged recombinant human EPPIN is attached to NTA-donor beads and anti-EPPIN (S21C; against the EPPIN C-terminal domain) is attached to protein A-acceptor beads. This epitope specific assay gives strong and stable binding between EPPIN and the antibody.
# Briefly, recombinant histidine-tagged recombinant EPPIN was pre-incubated with Ni-NTA chelate donor beads (catalog number AS101, Perkin Elmer, Waltham MA) and anti-Eppin 007 or anti-Eppin Q20E antibody was pre-incubated with Protein A acceptor beads (catalog number 6760136, Perkin Elmer, Waltham MA) for 30 minutes. Equal volumes of donor and acceptor bead mixtures were pipetted into white opaque 384-well microplates (OptiPlate-384; PerkinElmer, Waltham, MA) in a final volume of 30 μL. Plates were covered with top seal and transferred to a Synergy HTS Multiplatform automated plate reader (Biotek, Winooski, VT). After shaking for 2 min, plates were read with an excitation 680/30 filter, an emission 570/100 filter and data acquired using Gen5 software (Biotek). Each set of samples was pipetted in 4 replicates. The final concentration of assay components was 58 nM EPPIN, 2 nM anti-Eppin 007 or Q20E antibody, 5 μg/ml donor beads and 10 μg/ml acceptor beads in 0.1M Tris pH=8, 0.1% bovine serum albumin and 0.01% Tween-20. Negative controls were performed under the same conditions in the absence of EPPIN or antibody and in the presence of beads only. The antibody 007 used in this assay binds the same epitope that binds the EP055 compound so the two entities compete for binding to EPPIN. Q20E binds the n-terminal part of EPPIN.
# Non-specific interactions of compound with assay components were measured at the same time with the IgG detection kit ([…] biotinylated rabbit IgG) to generate the bead interaction: 10 μg/ml donor and acceptor beads. (catalog number 6760617C, Perkin Elmer).
# A specific signal for each time point was calculated by subtracting the background signal (obtained in the absence of Eppin) from its respective total signal. EC50 values for the binding of EPPIN to specific compounds were calculated by non-linear regression curve fitting using the specific signal obtained after 16 h of incubation using GraphPad Prism version 6.00 for Windows (GraphPad Software, La Jolla California USA, www.graphpad.com).
# human sperm motility = test: live sperm computer-assisted sperm analysis (CASA) assay; assay type: cell-based; conditions: for inhibitory activity in the CASA sperm motility assay: human spermatozoa
# Procedure: In another embodiment, a computer-assisted sperm analysis (CASA) can be used as a live cell compound screen for determining the effect of compounds on human sperm motility. Additionally, to facilitate the EC50 evaluation of compounds using different ejaculates, reducing inter-assay variation due to differences in sperm quality in different semen samples, an index of relative motility inhibition (RMI) was developed. This is calculated as: RMI=[% motility*VSL]; percentage of motile sperm (% motility) or the percentage of progressively motile sperm (% progressive motility, RPMI) multiplied by the straight-line velocity (VSL); the average velocity measured in a straight line from the beginning to the end of a track in μm/sec. Normalized RMI can be calculated by dividing the RMI of each experimental condition by its respective DMSO control.
# The live-sperm Computer Assisted Sperm Analysis (CASA) Assays were done as follows.
# Human semen samples were obtained from the Department of Obstetrics and Gynecology, University of North Carolina Memorial Hospital, Chapel Hill, NC. […] Semen samples were allowed to liquefy for 30 minutes and subjected to standard semen analysis to determine acceptability before freezing. All samples were stored in liquid nitrogen, and de-identified by the Department of Obstetrics and Gynecology, University of North Carolina Memorial Hospital, Chapel Hill, NC before further processing. A density gradient (SpermCare catalog number 2221 and 2222, InvitroCare Inc., Frederick MD) was used to prepare spermatozoa for further analysis. At least 3 independent experiments were done per assay, each using several pooled samples from a single donor. Briefly sperm were washed after the density gradient with EP buffer-0.4% human serum albumin and resuspended in the same buffer for compound treatments. Sperm were diluted to 5×10^6/mL in 12×75 mm glass tubes with the appropriate treatment and incubated at 37° C. in 5% CO2. For CASA analysis, sperm were loaded onto slides (CellVison 4 chamber (20 μM), catalog number CV-1020-4CV, Fertility Technology Resources, Murphy NC) and warmed to 37° C. before analysis. Videos of sperm motility were collected using a Nikon ECLIPSE TS2-FL inverted microscope with 10× eyepiece and a 10× negative phase contrast objective and a Basler high speed camera (1280×1024 px, 200 fps, USB 3, CMOS). AVI Videos were analyzed using OpenCASA software (version 2). Units for CASA parameters are as follows: VAP (average path velocity), VSL (straight line velocity), and VCL (curvilinear velocity)=μm/sec (microns/sec); ALH (lateral head amplitude)=μm; BCF (beat cross-frequency)=Hz. The relative mobility index (RMI) is a measure of the effect of compound on sperm and is calculated as the VSL x % normal motility and normalized to the appropriate DMSO control.
Molecule,inhibitory activity in the epitope ALPHA assay (recombinant human EPPIN),inhibitory activity in the CASA sperm motility assay (human sperm motility),"EC50 (human sperm motility; inhibiting sperm motility and impairing proper function, read-out: calculated EC50 value for inhibiting sperm motility)"
"COC(=O)CCSc1nc(NNC(=O)OC)nc(Nc2ccc(NC(C)=O)c(O)c2)n1 [EP082, methyl 3-({4-[(4-acetamido-3-hydroxyphenyl)amino]-6-{[(methoxycarbonyl)amino]amino}-1,3,5-triazin-2-yl}sulfanyl)propanoate]",inhibitory activity,inhibitory activity,–
"COC(=O)NNc1nc(Nc2ccc(NC(C)=O)c(O)c2)nc(SCCC(=O)O)n1 [EP083, 3-((4-((4-acetamido-3-hydroxyphenyl)amino)-6-(2-(methoxycarbonyl)hydrazineyl)-1,3,5-triazin-2-yl)thio)propanoic acid]",inhibitory activity,inhibitory activity,–
"COC(=O)NNc1nc(Nc2ccc(NC(C)=O)c(O)c2)nc(SCCC(C)=O)n1 [EP091, methyl 2-(4-((4-acetamido-3-hydroxyphenyl)amino)-6-((3-oxobutyl)thio)-1,3,5-triazin-2-yl) hydrazine-1-carboxylate]",inhibitory activity,inhibitory activity,–
"COC(=O)NNc1nc(Nc2ccc(NC(C)=O)c(O)c2)nc(SCCCC(=O)O)n1 [EP096, 4-((4-((4-acetamido-3-hydroxyphenyl)amino)-6-(2(methoxycarbonyl)hydrazineyl)-1,3,5-triazin-2-yl)thio)butanoic acid]",inhibitory activity,inhibitory activity,–
"COC(=O)CCCSc1nc(NNC(=O)OC)nc(Nc2ccc(NC(C)=O)c(O)c2)n1 [EP098, methyl 4-({4-[(4-acetamido-3-hydroxyphenyl)amino]-6-{[(methoxycarbonyl)amino]amino}-1,3,5-triazin-2-yl}sulfanyl)butanoate]",inhibitory activity,inhibitory activity,–
"COC(=O)CCSc1cc(NNC(=O)OC)nc(Cc2ccc(NC(C)=O)c(O)c2)n1 [EP100, methyl 3-({2-[(4-acetamido-3-hydroxyphenyl)methyl]-6-{[(methoxycarbonyl)amino]amino}pyrimidin-4-yl}sulfanyl)propanoate]",inhibitory activity,inhibitory activity,–
"COC(=O)CCSc1cc(NNC(=O)OC)cc(Cc2ccc(CC(C)=O)c(O)c2)n1 [EP101, methyl 3-[(6-{[3-hydroxy-4-(2-oxopropyl)phenyl]methyl}-4-{[(methoxycarbonyl)amino]amino}pyridin-2-yl)sulfanyl]propanoate]",inhibitory activity,inhibitory activity,–
"CO/N=C/c1ccc(Cc2nc(NNC(=O)OC)cc(SCCC(=O)OC)n2)cc1O [EP102, methyl 3-{[2-({3-hydroxy-4-[(1E)-(methoxyimino)methyl]phenyl}methyl)-6-{[(methoxycarbonyl)amino]amino}pyrimidin-4-yl]sulfanyl}propanoate]",inhibitory activity,inhibitory activity,–
"CO/N=C/c1ccc(Cc2cc(NNC(=O)OC)cc(SCCC(=O)OC)n2)cc1O [EP103, methyl 3-{[6-({3-hydroxy-4-[(1E)-(methoxyimino)methyl]phenyl}methyl)-4-{[(methoxycarbonyl)amino]amino}pyridin-2-yl]sulfanyl}propanoate]",inhibitory activity,inhibitory activity,–
"CO/N=C/c1ccc(Cc2cc(NNC(=O)OC)cc(SCCC(=O)O)n2)cc1O [EP104, 3-{[6-({3-hydroxy-4-[(1E)-(methoxyimino)methyl]phenyl}methyl)-4-{[(methoxycarbonyl)amino]amino}pyridin-2-yl]sulfanyl}propanoic acid]",inhibitory activity,inhibitory activity,–
"SEMG1: semenogelin, seminal vesicle protein that binds EPPIN on sperm and inhibits progressive motility (protein, UniProt P04279 24-462, looked up) Semenogelin-1: QKGGSKGRLPSEFSQFPHGQKGQHYSGQKGKQQTESKGSFSIQYTYHVDANDHDQSRKSQQYDLNALHKTTKSQRHLGGSQQLLHNKQEGRDHDKSKGHFHRVVIHHKGGKAHRGTQNPSQDQGNSPSGKGISSQYSNTEERLWVHGLSKEQTSVSGAQKGRKQGGSQSSYVLQTEELVANKQQRETKNSHQNKGHYQNVVEVREEHSSKVQTSLCPAHQDKLQHGSKDIFSTQDELLVYNKNQHQTKNLNQDQQHGRKANKISYQSSSTEERRLHYGENGVQKDVSQSSIYSQTEEKAQGKSQKQITIPSQEQEHSQKANKISYQSSSTEERRLHYGENGVQKDVSQRSIYSQTEKLVAGKSQIQAPNPKQEPWHGENAKGESGQSTNREQDLLSHEQKGRHQHGSHGGLDIVIIEQEDDSDRHLAQHLNNDRNPLFT",–,–,8.8 µM
